From patent publication US9938272B2, “Hydrazine compound as blood coagulation factor Xa inhibitor” (NORTH CHINA PHARMACEUTICAL COMPANY., LTD., priority 2014, dated 2018)

Assays:
human Factor Xa = human Factor Xa (Homo sapiens (Human), UniProt P00742); experiment: Human factor Xa chromogenic assay; assay type: biochemical; conditions: substrate S-2222, read-out: hfXa Ki
rat Factor Xa = rat Factor Xa (Rattus norvegicus (Rat), UniProt Q63207); experiment: Rat factor Xa chromogenic assay; assay type: biochemical; conditions: substrate S-2222, read-out: rfXa Ki
Sequence of rat Factor Xa (Q63207 232-482): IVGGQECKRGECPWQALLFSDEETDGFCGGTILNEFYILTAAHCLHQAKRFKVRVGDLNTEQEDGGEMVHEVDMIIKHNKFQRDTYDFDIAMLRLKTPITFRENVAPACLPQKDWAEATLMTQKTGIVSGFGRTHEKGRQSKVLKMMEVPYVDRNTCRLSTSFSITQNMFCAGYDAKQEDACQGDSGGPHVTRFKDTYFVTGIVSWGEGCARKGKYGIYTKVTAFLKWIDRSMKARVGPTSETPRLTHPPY
Sequence of rat Factor Xa (Q63207 41-180): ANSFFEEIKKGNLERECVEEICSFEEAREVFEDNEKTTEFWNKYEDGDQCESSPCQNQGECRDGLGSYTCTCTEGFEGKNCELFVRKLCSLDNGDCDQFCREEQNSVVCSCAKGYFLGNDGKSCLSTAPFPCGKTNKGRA

human thrombin = human thrombin (Homo sapiens (Human), UniProt P00734); experiment: Human thrombin assay; assay type: biochemical; conditions: substrate S-2238
human trypsin = human trypsin (Homo sapiens, UniProt P07477); experiment: Human trypsin assay; assay type: biochemical; conditions: substrate S-2222
prothrombinase = prothrombinase (Homo sapiens (Human), UniProt P00742); experiment: Prothrombinase assay (thrombin generation); assay type: biochemical; conditions: human factor Xa with human platelets, prothrombin, substrate S-2238
Sequence of prothrombinase (P00742 235-488): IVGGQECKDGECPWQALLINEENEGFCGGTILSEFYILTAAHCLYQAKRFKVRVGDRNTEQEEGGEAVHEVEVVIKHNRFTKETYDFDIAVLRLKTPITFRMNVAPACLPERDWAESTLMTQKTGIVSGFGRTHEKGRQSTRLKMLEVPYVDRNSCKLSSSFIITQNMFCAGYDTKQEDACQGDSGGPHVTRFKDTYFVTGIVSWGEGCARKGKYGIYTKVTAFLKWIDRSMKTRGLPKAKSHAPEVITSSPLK
Sequence of prothrombinase (P00742 41-179): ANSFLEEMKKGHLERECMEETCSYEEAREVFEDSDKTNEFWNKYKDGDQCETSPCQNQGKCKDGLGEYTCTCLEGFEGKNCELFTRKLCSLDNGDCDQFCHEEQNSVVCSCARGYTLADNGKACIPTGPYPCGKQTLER
Sequence of prothrombinase (P12259 29-737 partner): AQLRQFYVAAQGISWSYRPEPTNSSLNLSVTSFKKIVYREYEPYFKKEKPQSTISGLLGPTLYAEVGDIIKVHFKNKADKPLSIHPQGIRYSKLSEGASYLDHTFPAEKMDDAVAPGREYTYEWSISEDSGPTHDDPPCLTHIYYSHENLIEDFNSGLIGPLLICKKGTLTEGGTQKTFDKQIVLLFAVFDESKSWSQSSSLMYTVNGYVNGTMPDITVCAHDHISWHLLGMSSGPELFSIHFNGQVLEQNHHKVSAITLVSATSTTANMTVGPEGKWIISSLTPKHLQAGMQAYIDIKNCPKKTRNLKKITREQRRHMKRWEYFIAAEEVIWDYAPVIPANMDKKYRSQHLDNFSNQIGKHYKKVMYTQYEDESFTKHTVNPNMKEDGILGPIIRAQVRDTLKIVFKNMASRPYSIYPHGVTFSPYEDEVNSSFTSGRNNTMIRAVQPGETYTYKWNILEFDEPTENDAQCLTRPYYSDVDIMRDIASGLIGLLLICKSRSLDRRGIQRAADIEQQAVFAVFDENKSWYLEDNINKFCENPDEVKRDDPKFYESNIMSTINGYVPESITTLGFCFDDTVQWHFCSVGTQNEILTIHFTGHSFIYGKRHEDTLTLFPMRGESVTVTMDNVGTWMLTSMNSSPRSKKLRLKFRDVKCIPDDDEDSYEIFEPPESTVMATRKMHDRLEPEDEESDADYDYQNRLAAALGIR
Sequence of prothrombinase (P12259 1574-2224 partner): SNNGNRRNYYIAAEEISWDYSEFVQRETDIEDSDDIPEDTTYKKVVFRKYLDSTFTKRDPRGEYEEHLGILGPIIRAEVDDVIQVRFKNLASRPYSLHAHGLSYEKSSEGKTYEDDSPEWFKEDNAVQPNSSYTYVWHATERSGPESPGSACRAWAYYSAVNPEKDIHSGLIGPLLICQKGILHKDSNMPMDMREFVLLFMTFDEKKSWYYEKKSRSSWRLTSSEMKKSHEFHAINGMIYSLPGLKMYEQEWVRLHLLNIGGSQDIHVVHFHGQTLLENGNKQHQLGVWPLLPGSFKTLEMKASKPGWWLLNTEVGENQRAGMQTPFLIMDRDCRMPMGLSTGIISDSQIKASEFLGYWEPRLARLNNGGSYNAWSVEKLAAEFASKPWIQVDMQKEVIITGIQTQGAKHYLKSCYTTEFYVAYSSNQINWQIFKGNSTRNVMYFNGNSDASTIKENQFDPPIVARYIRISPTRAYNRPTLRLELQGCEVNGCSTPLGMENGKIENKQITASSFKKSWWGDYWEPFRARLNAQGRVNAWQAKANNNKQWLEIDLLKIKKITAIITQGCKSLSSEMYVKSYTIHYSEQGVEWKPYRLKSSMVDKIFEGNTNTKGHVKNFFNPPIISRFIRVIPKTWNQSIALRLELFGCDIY

[1] = cited from earlier work
[2] = terminal phase; cited from earlier work

Sequence of human Factor Xa (P00742 235-488): as the sequence (P00742 235-488) above
Sequence of human Factor Xa (P00742 41-179): as the sequence (P00742 41-179) above

| Structure (SMILES) | Ki (human Factor Xa) [nM] | Ki (rat Factor Xa) [nM] | Ki (human thrombin) [nM] | Ki (human trypsin) [nM] | Ki (prothrombinase) [nM] | water solubility [1] | mean elimination t½ [2] [h] |
| --- | --- | --- | --- | --- | --- | --- | --- |
| O=C(NC[C@H]1CN(c2ccc(N3CCOCC3=O)cc2)C(=O)O1)c1ccc(Cl)s1 [rivaroxaban] | – | – | – | – | – | limited | – |
| COc1ccc(-n2nc(C(N)=O)c3c2C(=O)N(C2CCN(C4CCNC4=O)CC2)CC3)cc1 (single isomer, unassigned) [Example 8b, 1-(4-Methoxyphenyl)-7-oxo-6-(1-(2-oxopyrrolidin-3-yl)piperidin-4-yl)-4,5,6,7-tetrahydro-1H-pyrazolo[3,4-c]pyridine-3-carboxamide] | ≤ 10 | 10 to 50 | ≥ 1000 | ≥ 1000 | 10 to 50 | – | – |
| NC(=O)c1nn(-c2ccc(OC(F)F)cc2)c2c1CCN(C1CCN(N3CCOCC3=O)CC1)C2=O [Example 11, 1-(4-(Difluoromethoxy)phenyl)-7-oxo-6-(1-(3-oxomorpholino)piperidin-4-yl)-4,5,6,7-tetra hydro-1H-pyrazolo[3,4-c]pyridine-3-carboxamide] | ≤ 10 | 10 to 50 | ≥ 1000 | ≥ 1000 | ≤ 10 | – | – |
| Nc1noc2ccc(-n3nc(C(F)(F)F)c4c3C(=O)N(C3CCN(N5CCOCC5=O)CC3)CC4)cc12 [Example 26, 4-(4-(1-(3-Aminobenzo[d]isoxazol-5-yl)-7-oxo-3-(trifluoromethyl)-4,5-dihydro-1H-pyrazolo[3,4-c]pyridin-6(7H)-yl)piperidin-1-yl)morpholin-3-one] | ≤ 10 | ≤ 10 | ≥ 1000 | ≥ 1000 | ≤ 10 | – | – |
| COc1ccc(-n2nc(C(F)(F)F)c3c2C(=O)N(C2CCN(N4CCOCC4=O)CC2)CC3)cc1 [Example 1, 4-(4-(1-(4-Methoxyphenyl)-7-oxo-3-(trifluoromethyl)-4,5-dihydro-1H-pyrazolo[3,4-c]pyridin-6(7H)-yl)piperidin-1-yl)morpholin-3-one] | ≤ 10 | ≤ 10 | ≥ 1000 | ≥ 1000 | ≤ 10 | – | – |
| COc1ccc(-n2nc(C(F)(F)F)c3c2C(=O)N(C2CCN(N4CCCCC4=O)CC2)CC3)cc1 [Example 2, 1-(4-Methoxyphenyl)-6-(2′-oxo-[1,1′-bipiperidin]-4-yl)-3-(trifluoromethyl)-5,6-dihydro-1H-pyrazolo[3,4-c]pyridin-7(4H)-one] | ≤ 10 | ≤ 10 | ≥ 1000 | ≥ 1000 | ≤ 10 | – | – |
| COc1ccc(-n2nc(C(N)=O)c3c2C(=O)N(c2ccc(N4CCCCC4=O)cc2)CC3)cc1 [Apixaban, apixaban] | – | – | – | – | – | – | 8 to 15 |
| NC(=O)c1nn(-c2ccc(OC(F)(F)F)cc2)c2c1CCN(C1CCN(N3CCOCC3=O)CC1)C2=O [Example 10, 7-Oxo-6-(1-(3-oxomorpholino)piperidin-4-yl)-1-(4-(trifluoromethoxy)phenyl)-4,5,6,7-tetr a hydro-1H-pyrazolo[3,4-c]pyridine-3-carboxamide] | ≤ 10 | 50 to 1000 | ≥ 1000 | ≥ 1000 | 50 to 1000 | – | – |
| COc1ccc(-n2nc(C(N)=O)c3c2C(=O)N(N2CCC(N4CCCCC4=O)CC2)CC3)cc1 [Example 14, 1-(4-Methoxyphenyl)-7-oxo-6-(2-oxo-[1,4′-bipiperidin]-1′-yl)-4,5,6,7-tetrahydro-1H-pyrazolo[3,4-c]pyridine-3-carboxamide] | ≤ 10 | 50 to 1000 | ≥ 1000 | ≥ 1000 | ≤ 10 | – | – |

Continued, in another order:

| Ki (human Factor Xa) [nM] | Ki (rat Factor Xa) [nM] | Ki (human thrombin) [nM] | Ki (human trypsin) [nM] | Ki (prothrombinase) [nM] | Structure (SMILES) | water solubility [1] | mean elimination t½ [2] [h] |
| --- | --- | --- | --- | --- | --- | --- | --- |
| ≤ 10 | ≤ 10 | ≥ 1000 | ≥ 1000 | ≤ 10 | COc1ccc(-n2nc(C(F)(F)F)c3c2C(=O)N(C2CCN(N4CCOCC4=O)CC2)CC3)cc1F [Example 28, 4-(4-(1-(3-Fluoro-4-methoxyphenyl)-7-oxo-3-(trifluoromethyl)-4,5-dihydro-1H-pyrazolo[3,4-c]pyridin-6(7H)-yl)piperidin-1-yl)morpholin-3-one] | – | – |
| ≤ 10 | 10 to 50 | ≥ 1000 | ≥ 1000 | ≤ 10 | O=C1c2c(c(C(F)(F)F)nn2-c2ccc(OC(F)F)cc2)CCN1C1CCN(N2CCOCC2=O)CC1 [Example 23, 4-(4-(1-(4-(Difluoromethoxy)phenyl)-7-oxo-3-(trifluoromethyl)-4,5-dihydro-1H-pyrazolo[3,4-c]pyridin-6(7H)-yl)piperidin-1-yl)morpholin-3-one] | – | – |
| ≤ 10 | ≤ 10 | ≥ 1000 | ≥ 1000 | ≤ 10 | O=C1c2c(c(C(F)(F)F)nn2-c2ccc3cc(Cl)ccc3c2)CCN1C1CCN(N2CCOCC2=O)CC1 [Example 24, 4-(4-(1-(6-Chloronaphthalen-2-yl)-7-oxo-3-(trifluoromethyl)-4,5-dihydro-1H-pyrazolo[3,4-c]pyridin-6(7H)-yl)piperidin-1-yl)morpholin-3-one] | – | – |
| ≤ 10 | 10 to 50 | ≥ 1000 | ≥ 1000 | ≤ 10 | COc1ccc(-n2nc(/C(N)=N\C#N)c3c2C(=O)N(C2CCN(N4CCCCC4=O)CC2)CC3)cc1 [Example 6, N′-Cyano-1-(4-methoxyphenyl)-7-oxo-6-(2′-oxo-[1,1′-bipiperidin]-4-yl)-4,5,6,7-tetrahydro-1H-pyrazolo[3,4-c]pyridine-3-carboximidamide] | – | – |
| 10 to 50 | 10 to 50 | ≥ 1000 | ≥ 1000 | ≤ 10 | COc1ccc(-n2nc(C#N)c3c2C(=O)N(C2CCN(N4CCCCC4=O)CC2)CC3)cc1 [Example 5, 1-(4-Methoxyphenyl)-7-oxo-6-(2′-oxo-[1,1′-bipiperidin]-4-yl)-4,5,6,7-tetrahydro-1H-pyrazolo[3,4-c]pyridine-3-carbonitrile] | – | – |
| ≤ 10 | 10 to 50 | ≥ 1000 | ≥ 1000 | ≤ 10 | COc1ccc(-n2nc(C(N)=O)c3c2C(=O)N(C2CCN(N4CCOCC4=O)CC2)CC3)cc1 [Example 7, 1-(4-Methoxyphenyl)-7-oxo-6-(1-(3-oxomorpholino)piperidin-4-yl)-4,5,6,7-tetrahydro-1H-pyrazolo[3,4-c]pyridine-3-carboxamide] | – | – |
